Values of other authors in US20220016310A1, “ANTIMICROBIAL SHAPE MEMORY POLYMERS” (THE TEXAS A&M UNIVERSITY SYSTEM, priority 2016, published 2022).

Tested on: antibiotic-resistant bacteria (Enterobacter aerogenes, Escherichia coli, and Staphylococcus aureus)
Conditions: bacteria obtained from hospitals

With `O=C(O)C=Cc1ccccc1` [cinnamic acid] as the compound, how does the “Susceptibility of antibiotic-resistant bacteria” value read?
The value was “susceptible”.
